In patent publication US20250002493A1, “PYRIDONE COMPOUND AND PREPARATION METHOD THEREFOR, PHARMACEUTICAL COMPOSITION AND USE” (NANJING CHINA-AUSTRALIA INSTITUTE OF TRANSLATIONAL MEDICINE …, priority 2022, published 2025):

How the values were obtained:
[1] = target: BIR3 domain of human cIAP1 (residues 255-364) (Homo sapiens (Human), UniProt Q13490); assay: Fluorescence polarization competitive binding to cIAP1 BIR3; conditions: FP, peptide probe 5 nM, cIAP1 BIR3 5 nM, 1 hour room temperature
Protocol: (§1) The binding affinity of the compounds provided by the present invention to IAP proteins was determined using a fluorescence polarization method (Nikolovska-Colesak et al, Anal. Biochem. 2004, 332:261-73). The recombinant BIR3 domains of human XIAP (residues 238-358), human cIAP1 (residues 255-364) and human cIAP2 (residues 236-342) fusing GST-tags were expressed in E. coli and purified using glutathione agarose 4B affinity chromatography and gel filtration chromatography. A 5-Fam fluorescently modified peptide probe (AbuRPFK(5-Fam)-NH2) was used to test the competitive binding ability of the compounds to the BIR3 domains of XIAP, cIAP1 and cIAP2. The peptide probe (5 nM), XIAP BIR3 (30 nM) or cIAP1 BIR3 (5 nM) or cIAP2 BIR3 (10 nM), and serial diluted compounds were mixed in a test buffer (100 mM potassium phosphate pH 7.5, 100 μg/ml bovine gamma globulin, 0.02% sodium azide, and 1 mM DTT). After incubating the samples at room temperature for 1 hour, the fluorescence polarization values were read using a Tecan microplate reader (FP excitation wavelength 485 nm, […] wavelength 530 nm). The IC50 value was obtained by fitting the curve using nonlinear least square regression with the Graphpad Prism software. The inhibition constant Ki, values were calculated using the Equation Ki, [I]50/([L]50/Kd+[P]0/Kd+1).

[2] = target: BIR3 domain of human cIAP2 (residues 236-342) (Homo sapiens (Human), UniProt Q13489); assay: Fluorescence polarization competitive binding to cIAP2 BIR3; conditions: FP, peptide probe 5 nM, cIAP2 BIR3 10 nM, 1 hour room temperature
Protocol: as §1

[3] = target: BIR3 domain of human XIAP (residues 238-358) (Homo sapiens (Human), UniProt P98170); assay: Fluorescence polarization competitive binding to XIAP BIR3; conditions: FP, peptide probe 5 nM, XIAP BIR3 30 nM, 1 hour room temperature
Protocol: as §1

[4] = tested on: MDA-MB-231 human breast cancer cells; assay: WST-8 cell proliferation assay, MDA-MB-231; assay type: cell-based; conditions: 72 hours
Protocol: (§2) The effects of the compounds provided by the present invention on the proliferation of different cancer cell lines were tested using the WST-8 assay kit. This method is based on the reduction of WST-8 by dehydrogenase in live cells to form a highly water-soluble yellow Formazan dye. Cells were seeded in a 96-well plate and cultured with the test compounds at 37° C. under 5% CO2 for 72 hours. Afterwards, 10% (v/v) WST-8 was added, and the samples were incubated for an additional 2-3 hours. The absorbance of the samples was measured at 450 nm using a Tecan microplate reader, and the concentration of the compound that inhibited 50% of cell proliferation (IC50, nM) was calculated. The activity of the compounds provided by the present invention was determined in three cancer cell lines: MDA-MB-231 human breast cancer cells, SK-OV-3 human ovarian cancer cells, and PANC1 human pancreatic cancer.

[5] = tested on: SK-OV-3 human ovarian cancer cells; assay: WST-8 cell proliferation assay, SK-OV-3; assay type: cell-based; conditions: 72 hours, read-out: SKOV-3 IC50
Protocol: as §2

[6] = tested on: PANC1 human pancreatic cancer; assay: WST-8 cell proliferation assay, PANC1; assay type: cell-based; conditions: PANC-1, 72 hours
Protocol: as §2

MDA-MB-231 cancer cells = assay: Inhibitor-induced apoptosis, flow cytometry with Annexin V and propidium iodide; assay type: cell-based, human; conditions: 3 hours
Protocol: After treating the cells with 10 nM and 100 nM concentrations of the compounds for 3 hours, the induction of apoptosis was analyzed using flow cytometry with Annexin V and propidium iodide staining.

BIR3 domain of human cIAP2 (residues 236-342), sequence (Q13489 236-342): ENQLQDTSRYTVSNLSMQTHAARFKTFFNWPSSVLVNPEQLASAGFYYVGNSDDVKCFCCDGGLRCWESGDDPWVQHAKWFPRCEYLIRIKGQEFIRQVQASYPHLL
BIR3 domain of human XIAP (residues 238-358), sequence (P98170 238-358): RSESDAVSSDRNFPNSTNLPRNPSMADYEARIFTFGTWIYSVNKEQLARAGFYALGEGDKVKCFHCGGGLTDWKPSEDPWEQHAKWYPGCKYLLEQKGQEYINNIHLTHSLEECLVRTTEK
BIR3 domain of human cIAP1 (residues 255-364), sequence (Q13490 255-364): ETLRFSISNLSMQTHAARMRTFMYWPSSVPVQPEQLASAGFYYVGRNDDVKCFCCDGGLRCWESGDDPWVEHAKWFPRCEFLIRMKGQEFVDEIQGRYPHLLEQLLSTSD

Row | SMILES | Ki [1] [nM] | Ki [2] [nM] | Ki [3] [nM] | IC50 [4] [nM] | IC50 [5] [nM] | IC50 [6] [nM] | Proportion of apoptotic cells (MDA-MB-231 cancer cells; Drug concentration 10 nM) [%] | Proportion of apoptotic cells (MDA-MB-231 cancer cells; Drug concentration 100 nM) [%]
1 | [2H]C([2H])([2H])N[C@@H](C)C(=O)N[C@H](C(=O)N1CCc2cc(=O)n(Cc3ccc(F)cc3)cc21)C1CCCCC1 [Compound I-2-15] | 1 | 4 | 76.9 | 9 | 12 | 64 |  | 
2 | CN[C@@H](C)C(=O)N[C@H](C(=O)N1CC(C)(C)c2cc(=O)n(Cc3ccc(F)cc3F)cc21)C1CCCCC1 [Compound I-2-27] | 1.9 | 5.7 | 208 | 18 | 19 | 96 | 31 | 46
3 | CN[C@@H](C)C(=O)N[C@H](C(=O)N1CC(C)(C)c2cc(=O)n(Cc3ccc(F)cc3O)cc21)C(C)(C)C [Compound I-2-32] | 2.2 | 10 | 343 | 28 | 29 | 189 | 21 | 43
4 | CN[C@@H](C)C(=O)N[C@H](C(=O)N1CCc2cc(=O)n(Cc3ccc(F)cc3F)cc21)C(C)(C)C [Compound I-2-20] | 1 | 1.8 | 21.5 | 3 | 1 | 33 | 39 | 53
5 | CN[C@@H](C)C(=O)N[C@H](C(=O)N1CC(C)(C)c2cc(=O)n(Cc3ccc(F)cc3)cc21)C(C)(C)C [Compound I-2-33] | 1.9 | 7.9 | 288 | 24 | 27 | 192 | 23 | 45
6 | [2H]C([2H])([2H])N[C@@H](C)C(=O)N[C@H](C(=O)N1CC(C)(C)c2cc(=O)n(Cc3ccc(F)cc3)cc21)C(C)(C)C [Compound I-2-29] | 3 | 12.7 | 568 | 29 | 32 | 165 | 20 | 42
7 | CN[C@@H](C)C(=O)N[C@H](C(=O)N1CCc2cc(=O)n(Cc3ccc(F)cc3O)cc21)C(C)(C)C [Compound I-2-23] | 1 | 2.3 | 53.6 | 9 | 5 | 67 | 35 | 50
8 | CN[C@@H](C)C(=O)N[C@H](C(=O)N1CCc2c1cc(Cc1ccc(F)cc1)c(=O)n2C)C(C)(C)C [Compound I-3-2] | 1.2 | 2.2 | 18.4 | 2 | 2 | 43 | 38 | 52
9 | [2H]C([2H])([2H])N[C@@H](C)C(=O)N[C@H](C(=O)N1CCc2cc(=O)n(Cc3ccc(F)cc3F)cc21)C(C)(C)C [Compound I-2-35] | 1.2 | 2.6 | 33.4 |  |  |  |  | 
10 | CN[C@@H](C)C(=O)N[C@H](C(=O)N1CC(C)(C)c2cc(=O)n(Cc3ccc(F)cc3F)cc21)C(C)(C)C [Compound I-2-26] | 1.4 | 6.9 | 70.9 | 21 | 7 | 89 | 32 | 47
11 | [2H]C([2H])([2H])N[C@@H](C)C(=O)N[C@H](C(=O)N1CCc2cc(=O)n(Cc3ccc(F)cc3F)cc21)C(C)(C)C [Compound I-2-22] | 0.8 | 1.5 | 21 | 3 | 2 | 34 | 38 | 52
12 | [2H]C([2H])([2H])N[C@@H](C)C(=O)N[C@H](C(=O)N1CC(C)(C)c2cc(=O)n(Cc3ccc(F)cc3F)cc21)C(C)(C)C [Compound I-2-28] | 1.9 | 6.7 | 185 | 20 | 23 | 124 | 29 | 47
13 | CN[C@@H](C)C(=O)N[C@H](C(=O)N1CCc2c1cc(Cc1ccc(F)cc1)c(=O)n2C)C1CCCCC1 [Compound I-3-1, (S)-N-((S)-1-cyclohexyl-2-(6-(4-fluorobenzyl)-4-methyl-5-oxo-2,3,4,5-tetrahydro-1H-pyrrolo[3,2-b]pyridine-1-yl)-2-oxyethyl)-2-(methylamino)propanamide] | 1.2 | 2.6 | 30.7 | 5 | 4 | 58 | 36 | 48
14 | CN[C@@H](C)C(=O)N[C@H](C(=O)N1CCc2cc(=O)n(Cc3ccc(F)cc3F)cc21)C1CCCCC1 [Compound I-2-4] | 1.3 | 3.2 | 73.2 | 8 | 13 | 75 | 32 | 45
15 | C[C@H](N)C(=O)N[C@H](C(=O)N1CCc2cc(=O)n(Cc3ccc(F)cc3F)cc21)C(C)(C)C [Compound I-2-34] | 1.1 | 1.5 | 24.1 |  |  |  |  | 

Now from value to compound, other results behind:

Row | Ki [1] [nM] | Ki [2] [nM] | Ki [3] [nM] | IC50 [4] [nM] | IC50 [5] [nM] | IC50 [6] [nM] | SMILES | Proportion of apoptotic cells (MDA-MB-231 cancer cells; Drug concentration 10 nM) [%] | Proportion of apoptotic cells (MDA-MB-231 cancer cells; Drug concentration 100 nM) [%]
16 | 1 | 1.9 | 8.2 |  |  |  | CN[C@@H](C)C(=O)N[C@H](C(=O)N1CCc2[nH]c(=O)c(Cc3ccc(F)cc3)cc21)C(C)(C)C [Compound I-4-3] |  | 
17 | 1.6 | 5.2 | 45.2 |  |  |  | CN[C@@H](C)C(=O)N[C@H](C(=O)N1CC(C)(C)c2c1cc(Cc1ccc(F)cc1F)c(=O)n2C)C(C)(C)C [Compound I-3-7] |  | 
18 | 1.3 | 2.4 | 9.4 | 4 | 1 | 16 | CN[C@@H](C)C(=O)N[C@H](C(=O)N1CCc2[nH]c(=O)c(Cc3ccc(F)cc3F)cc21)C(C)(C)C [Compound I-4-2] | 41 | 54
19 | 0.8 | 1.6 | 12.3 |  |  |  | CCn1c2c(cc(Cc3ccc(F)cc3F)c1=O)N(C(=O)[C@@H](NC(=O)[C@H](C)NC)C(C)(C)C)CC2 [Compound I-3-6] |  | 
20 | 1.3 | 2.1 | 7.1 |  |  |  | CN[C@@H](C)C(=O)N[C@H](C(=O)N1CCc2c1cc(Cc1ccc(F)cc1F)c(=O)n2CC(F)(F)F)C(C)(C)C [Compound I-3-8] |  | 
21 | 1.4 | 2.2 | 13.7 | 2 | 1 | 37 | CN[C@@H](C)C(=O)N[C@H](C(=O)N1CCc2c1cc(Cc1ccc(F)cc1F)c(=O)n2C)C(C)(C)C [Compound I-3-3] | 43 | 55
22 | 1.3 | 2.7 | 19.9 | 6 | 1 | 53 | CN[C@@H](C)C(=O)N[C@H](C(=O)N1CCc2[nH]c(=O)c(Cc3ccc(F)cc3)cc21)C1CCCCC1 [Compound I-4-1, (S)-N-((S)-1-cyclohexyl-2-(6-(4-fluorobenzyl)-5-oxo-2,3,4,5-tetrahydro-1H-pyrrolo[3,2-b]pyridine-1-yl)-2-oxyethyl)-2-(methylamino)propanamide] | 36 | 49
23 |  | 5.8 | 25.2 | 33 | 40 | 241 | CN[C@@H](C)C(=O)N[C@H]1CN(C(=O)CC(C)C)CC[C@H]2CC[C@@H](C(=O)NC(c3ccccc3)c3ccccc3)N2C1=O [SM-406, reference compound] | 6 | 34
